Reference: publication PMC8431030, “In Vitro and In Silico Evaluation of New 1,3,4-Oxadiazole Derivatives of Pyrrolo[3,4-d]pyridazinone as Promising Cyclooxygenase Inhibitors” (International Journal of Molecular Sciences, 2021)

Legend:
COX-1 = biological target: T1, COX-1 (Ovis aries, UniProt P05979); assay: colorimetric COX peroxidase assay (Cayman […]), […] nm; type: biochemical; conditions: read-out: IC50 [μM] (SD) / COX-1
T1 construct: gene PTGS1; kit is understood to hold ovine COX-1
T1 sequence (P05979 25-600): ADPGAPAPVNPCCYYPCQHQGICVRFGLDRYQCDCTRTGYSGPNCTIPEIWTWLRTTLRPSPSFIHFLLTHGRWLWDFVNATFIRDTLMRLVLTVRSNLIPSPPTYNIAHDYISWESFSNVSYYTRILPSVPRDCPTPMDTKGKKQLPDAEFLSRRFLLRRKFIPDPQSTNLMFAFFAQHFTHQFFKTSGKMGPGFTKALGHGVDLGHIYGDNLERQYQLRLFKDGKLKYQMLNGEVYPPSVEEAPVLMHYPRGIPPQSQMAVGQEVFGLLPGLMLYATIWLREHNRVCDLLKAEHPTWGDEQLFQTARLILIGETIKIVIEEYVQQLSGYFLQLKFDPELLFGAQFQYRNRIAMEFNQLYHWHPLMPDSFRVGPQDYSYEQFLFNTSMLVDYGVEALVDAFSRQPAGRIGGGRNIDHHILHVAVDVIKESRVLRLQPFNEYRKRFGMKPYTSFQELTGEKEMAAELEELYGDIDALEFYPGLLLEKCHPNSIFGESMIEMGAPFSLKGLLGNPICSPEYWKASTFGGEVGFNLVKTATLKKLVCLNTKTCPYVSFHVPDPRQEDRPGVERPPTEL

COX-2 = biological target: T2, COX-2 (Homo sapiens, UniProt P35354); assay: colorimetric COX peroxidase assay (Cayman […]), […] nm; type: biochemical; conditions: read-out: IC50 [μM] (SD) / COX-2
T2 construct: gene PTGS2; kit is understood to hold human recombinant COX-2 (docking used PDB 4M11, not the assay protein)
T2 sequence (P35354 18-604): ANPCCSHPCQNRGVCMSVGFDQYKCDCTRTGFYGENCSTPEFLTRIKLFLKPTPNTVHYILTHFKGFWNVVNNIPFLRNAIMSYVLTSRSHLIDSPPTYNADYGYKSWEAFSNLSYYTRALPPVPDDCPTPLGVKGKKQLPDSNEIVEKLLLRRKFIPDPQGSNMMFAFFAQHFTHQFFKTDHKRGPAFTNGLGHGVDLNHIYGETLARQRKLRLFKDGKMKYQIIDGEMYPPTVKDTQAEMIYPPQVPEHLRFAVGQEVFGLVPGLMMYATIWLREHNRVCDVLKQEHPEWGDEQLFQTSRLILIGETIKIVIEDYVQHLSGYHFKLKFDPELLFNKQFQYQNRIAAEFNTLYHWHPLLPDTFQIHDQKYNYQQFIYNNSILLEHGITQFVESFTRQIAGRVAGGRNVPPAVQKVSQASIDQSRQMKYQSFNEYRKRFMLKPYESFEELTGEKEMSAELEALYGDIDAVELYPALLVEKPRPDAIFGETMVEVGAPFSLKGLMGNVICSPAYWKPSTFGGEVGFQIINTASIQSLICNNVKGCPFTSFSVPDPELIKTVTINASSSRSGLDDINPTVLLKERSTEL

IC50 (COX-1) [µM] | IC50 (COX-2) [µM] | Structure (SMILES)
130 | 43.6 | Cc1c2c(OCc3n[nH]c(=S)o3)nn(C)c(=O)c2c(C)n1-c1ccccc1 [1a]
138 | 63.4 | CCCCn1c(C)c2c(OCc3n[nH]c(=S)o3)nn(C)c(=O)c2c1C [1b]
50.3 | 49.7 | Cc1ccc(C)c(N2CCN(Cn3nc(COc4nn(C)c(=O)c5c(C)n(-c6ccccc6)c(C)c45)oc3=S)CC2)c1 [2a, 3,5,7-Trimethyl-6-phenyl-1-[[4-[(4-(2,5-dimethylphenyl)piperazin-1-yl)methyl]-2-thioxo-1,3,4-oxadiazol-5-yl]methoxy]pyrrolo[3,4-d]pyridazin-4-one]
50 | 49.4 | CCCCn1c(C)c2c(OCc3nn(CN4CCN(c5cc(C)ccc5C)CC4)c(=S)o3)nn(C)c(=O)c2c1C [2b, 3,5,7-Trimethyl-6-butyl-1-[[4-[(4-(2,5-dimethylphenyl)piperazin-1-yl)methyl]-2-thioxo-1,3,4-oxadiazol-5-yl]methoxy]pyrrolo[3,4-d]pyridazin-4-one]
50.3 | 49.7 | Cc1c2c(OCc3nn(CN4CCN(c5ccc(F)cc5F)CC4)c(=S)o3)nn(C)c(=O)c2c(C)n1-c1ccccc1 [3a, 3,5,7-Trimethyl-6-phenyl-1-[[4-[(4-(2,4-difluorophenyl)piperazin-1-yl)methyl]-2-thioxo-1,3,4-oxadiazol-5-yl]methoxy]pyrrolo[3,4-d]pyridazin-4-one]
54.3 | 56 | CCCCn1c(C)c2c(OCc3nn(CN4CCN(c5ccc(F)cc5F)CC4)c(=S)o3)nn(C)c(=O)c2c1C [3b]
50.2 | 49.2 | Cc1c2c(OCc3nn(CN4CCN(c5ccc(Cl)c(Cl)c5)CC4)c(=S)o3)nn(C)c(=O)c2c(C)n1-c1ccccc1 [4a, 3,5,7-Trimethyl-6-phenyl-1-[[4-[(4-(3,4-dichlorophenyl)piperazin-1-yl)methyl]-2-thioxo-1,3,4-oxadiazol-5-yl]methoxy]pyrrolo[3,4-d]pyridazin-4-one]
56.8 | 57.3 | CCCCn1c(C)c2c(OCc3nn(CN4CCN(c5ccc(Cl)c(Cl)c5)CC4)c(=S)o3)nn(C)c(=O)c2c1C [4b, 3,5,7-Trimethyl-6-butyl-1-[[4-[(4-(3,4-dichlorophenyl)piperazin-1-yl)methyl]-2-thioxo-1,3,4-oxadiazol-5-yl]methoxy]pyrrolo[3,4-d]pyridazin-4-one]
53.2 | 50.1 | Cc1ccc(C)c(N2CCN(C(=O)CSc3nnc(COc4nn(C)c(=O)c5c(C)n(-c6ccccc6)c(C)c45)o3)CC2)c1 [5a, 3,5,7-trimethyl-1-[[2-[2-oxo-2-(4-(2,5-dimethylphenyl)piperazin-1-yl)ethyl]sulfanyl-1,3,4-oxadiazol-5-yl]methoxy]-6-phenyl-pyrrolo[3,4-d]pyridazin-4-one]
51.8 | 53.8 | CCCCn1c(C)c2c(OCc3nnc(SCC(=O)N4CCN(c5cc(C)ccc5C)CC4)o3)nn(C)c(=O)c2c1C [5b, 3,5,7-trimethyl-1-[[2-[2-oxo-2-(4-(2,5-dimethylphenyl)piperazin-1-yl)ethyl]sulfanyl-1,3,4-oxadiazol-5-yl]methoxy]-6-butyl-pyrrolo[3,4-d]pyridazin-4-one]
52.3 | 50.2 | Cc1c2c(OCc3nnc(SCC(=O)N4CCN(c5ccc(F)cc5F)CC4)o3)nn(C)c(=O)c2c(C)n1-c1ccccc1 [6a, 3,5,7-trimethyl-1-[[2-[2-oxo-2-(4-(2,4-difluorophenyl)piperazin-1-yl)ethyl]sulfanyl-1,3,4-oxadiazol-5-yl]methoxy]-6-phenyl-pyrrolo[3,4-d]pyridazin-4-one]
51.1 | 50.1 | CCCCn1c(C)c2c(OCc3nnc(SCC(=O)N4CCN(c5ccc(F)cc5F)CC4)o3)nn(C)c(=O)c2c1C [6b, 3,5,7-trimethyl-1-[[2-[2-oxo-2-(4-(2,4-difluorophenyl)piperazin-1-yl)ethyl]sulfanyl-1,3,4-oxadiazol-5-yl]methoxy]-6-butyl-pyrrolo[3,4-d]pyridazin-4-one]
51.6 | 50.3 | Cc1c2c(OCc3nnc(SCC(=O)N4CCN(c5ccc(Cl)c(Cl)c5)CC4)o3)nn(C)c(=O)c2c(C)n1-c1ccccc1 [7a, 3,5,7-trimethyl-1-[[2-[2-oxo-2-(4-(3,4-dichloro)piperazin-1-yl)ethyl]sulfanyl-1,3,4-oxadiazol-5-yl]methoxy]-6-phenyl-pyrrolo[3,4-d]pyridazin-4-one]
50.9 | 49.5 | CCCCn1c(C)c2c(OCc3nnc(SCC(=O)N4CCN(c5ccc(Cl)c(Cl)c5)CC4)o3)nn(C)c(=O)c2c1C [7b, 3,5,7-trimethyl-1-[[2-[2-oxo-2-(4-(3,4-dichlorophenyl)piperazin-1-yl)ethyl]sulfanyl-1,3,4-oxadiazol-5-yl]methoxy]-6-butyl-pyrrolo[3,4-d]pyridazin-4-one]
